Measured values published in patent publication US20100004266A1, “Salt or Solvate of 5-Methyl-2(Piperazin-1-Yl)Benzenesulfonic Acid” (Mitsubishi Tanabe Pharma Corporation, priority 2006, published 2010).

How the values were obtained:
[1] = Thermal analysis (DSC) of the crystals; assay type: physicochemical; conditions: 25-300° C., 20° C./min, dry nitrogen gas 50 mL/min
Procedure: For thermal analysis, the measurement was performed in a dry nitrogen gas stream (50 mL/min) from 25° C. to 300° C. at a temperature rise rate of 20° C./min.
For identification of the solvate form of the present invention, a powder X-ray diffraction apparatus (manufactured by Bruker) GADDS detector system and a thermal analysis equipment (manufactured by Mettler-Toledo) DSC822e system were used. The powder X-ray diffraction pattern was measured at room temperature using CuKα as a monochromator within the 2θ angle range of 1.5-41.5°. The thermal analysis was performed in a dry nitrogen gas stream (50 mL/min) from 25° C. to 300° C. at a temperature rise rate of 20° C./min.
Using the white solids obtained in Examples 1 and 2 as sample 1 (hydrochloride salt) and sample 2 (calcium salt), respectively, the thermal analysis was performed under the following conditions.
apparatus: DSC822e manufactured by Metter-Toledo temperature rise rate: 20° C./min atmosphere: dry nitrogen gas 50 mL/min measurement temperature: 25-300° C.
Using the solid obtained in Example 3 as sample 3 (2,2,2-[…] hydrate crystal), the thermal analysis was performed under the following conditions.

cardiomyocytes = conditions: cited from earlier work

Molecule | crystal stability by thermal analysis [1] | no noticeable endothermic and exothermic peaks up to (temperature) [1] | excessive influx of calcium ions into cardiomyocytes (cardiomyocytes)
Cc1ccc(N2CCNCC2)c(S(=O)(=O)O)c1.OCC(F)(F)F [Sample 3, 5-methyl-2-(piperazin-1-yl)benzenesulfonic acid 2,2,2-tetrafluoroethanolate] | stable | around 80 °C | –
Cc1ccc(N2CCNCC2)c(S(=O)(=O)O)c1 [compound A, 5-methyl-2-(piperazin-1-yl)benzenesulfonic acid] | – | – | remarkably suppresses
Cc1ccc(N2CCNCC2)c(S(=O)(=O)O)c1.Cl [sample 1, 5-methyl-2-(piperazin-1-yl)benzenesulfonic acid hydrochloride] | stable | 200 °C | –
Calcium 5-methyl-2-(piperazin-1-yl)benzenesulfonate [sample 2] | stable | 200 °C | –
